Results on two molecules are retold here after patent US20030144350A1, “Fat accumulation-modulation compounds” (AdipoGenix, Inc., priority 2001, published 2003).

The conditions of data set [1]: mice, single injections; cited from earlier work.
Data set [2] concerns primary human subcutaneous preadipocytes. Kind of data set: High throughput screening of fluorescent fatty acid (FA*) accumulation in differentiating human preadipocytes. The data set is classed as cell-based. As for the experimental part:
Growth medium was changed every three days. […] Cell plates were prewashed with FAB+, and then FA* was added. Cells were incubated with FA* for four hours, and then postwashed with FAB+ to remove unincorporated FA*. Cellular fluorescence of triglyceride droplets that have incorporated FA* was measured on a microplate reader. Efficacy of compounds on inhibiting FA* accumulation was determined by the following calculation: […]

The test system is the same in data set [3]. The conditions noted are these: for % Toxicity: Alamar Blue. As for the experimental part:
Up to five cell strains of banked primary human subcutaneous preadipocytes were used for high throughput screening. Cells were grown in tissue culture flasks, maintained under standard incubation conditions (5% carbon dioxide, 37° C.) and split evenly when 100% confluent into two new tissue culture flasks (one cell division) in growth medium. Cells were split up to four times to produce enough cells for screening.
Two to five days before the experiment, adhered cells were detached with trypsin/EDTA, combined and seeded into 384-well plates at 100% confluency. On day zero, cells were incubated with […] to induce differentiation of preadipocytes into adipocytes (characterized by cell rounding, formation of triglyceride droplets, etc.). Growth medium was changed every three days. On day six, cells were incubated in triplicate with test compounds (supplied by ComGenex International, Inc., South San Francisco, USA) at various concentrations.
Compounds were first diluted in a phosphate-buffered saline solution with 0.1% fatty-acid free bovine serum albumin (BSA, to aid compound suspension), and then added to cells. Negative control cells were treated with DMSO, the solvent used for initially dissolving compounds, at 0.1% final concentration.
Subsequent determination of compound toxicity was measured by incubating cells with Alamar Blue (an indicator of cellular viability, purchased from BioSource International Inc., Camarillo, Calif., USA) for three to four hours before measuring fluorescence of the reduced compound. Toxicity of compounds was determined by the following calculation:
% Toxicity=100-(sample fluorescence/negative control fluorescence*100)
(In general: The colour change of resazurin is a common sign of viable cells or microbes.)

Where two headings read alike, the source gives them in different places.

Consider `C=C1C(=O)OC(CCCCCCCC)C1C(=O)O` (stereo not drawn) [Compound C75], for which the “food eaten less than untreated littermates” value in data set [1] is listed as 90%.

In the case of `N#CC(C#N)=NNc1ccc(OC(F)(F)F)cc1` [FCCP, Carbonyl cyanide p-(trifluoromethoxy)phenylhydrazone], in data set [2] (10 μM), the efficacy stood at 100%. The Emax at 0.3 µM in data set [2] (Homo sapiens, FCCP 0.3 uM, inhibition of FA* accumulation, read-out: % Efficacy) came to 42%. In data set [2] (Homo sapiens, FCCP 1 uM, inhibition of FA* accumulation, read-out: % Efficacy), the Emax at 1 µM worked out at 79%. Besides, the Emax at 3 µM in data set [2] (Homo sapiens, FCCP 3 uM, inhibition of FA* accumulation, read-out: % Efficacy) came to 90%. This molecule also came in with a toxicity in data set [3] (10 μM) of 100%. The “% Toxicity” value in data set [3] (FCCP 0.3 uM) is −1%; in data set [3] (FCCP 1 uM), −4%; in data set [3] (FCCP 3 uM), 5%.
